The structures appear in SMILES notation.

The assay has as its target T1, ABCG2 transporter (Homo sapiens, UniProt Q9UNQ0).
T1 sequence (Q9UNQ0 1-655): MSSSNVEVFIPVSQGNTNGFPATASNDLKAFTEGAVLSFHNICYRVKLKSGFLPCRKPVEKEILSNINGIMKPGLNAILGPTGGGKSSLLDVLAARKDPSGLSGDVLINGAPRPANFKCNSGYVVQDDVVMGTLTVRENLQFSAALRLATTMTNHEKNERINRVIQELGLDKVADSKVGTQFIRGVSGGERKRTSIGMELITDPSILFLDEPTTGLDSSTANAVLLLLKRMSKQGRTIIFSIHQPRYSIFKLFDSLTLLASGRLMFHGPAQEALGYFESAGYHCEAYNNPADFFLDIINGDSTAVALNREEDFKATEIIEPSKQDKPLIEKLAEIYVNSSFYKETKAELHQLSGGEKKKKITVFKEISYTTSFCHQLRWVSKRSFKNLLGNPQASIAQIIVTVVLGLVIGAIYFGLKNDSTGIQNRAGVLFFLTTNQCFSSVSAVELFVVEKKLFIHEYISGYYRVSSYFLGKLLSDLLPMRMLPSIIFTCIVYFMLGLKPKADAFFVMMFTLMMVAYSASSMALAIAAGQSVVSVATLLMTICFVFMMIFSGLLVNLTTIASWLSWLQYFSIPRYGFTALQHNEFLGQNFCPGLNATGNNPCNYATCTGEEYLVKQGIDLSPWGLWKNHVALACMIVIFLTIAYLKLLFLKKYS
The assay is described as follows: vanadate-sensitive ATPase assay (stimulation of basal activity) in ABCG2 membrane vesicles from High Five insect cells. It counts as biochemical.

A word on the EC50: it is the concentration that produces a half-maximal response. A low value points to an effect from little substance. In turn, `NC1(c2ccc(-c3nc4ccn5c(=O)[nH]nc5c4cc3-c3ccccc3)cc2)CCC1` [MK-2206] came in with a half-maximal effective concentration (EC50) of 460 nM.

(Values after paper PMC10373739, “The AKT inhibitor, MK-2206, attenuates ABCG2-mediated drug resistance in lung and colon cancer cells” (Frontiers in Pharmacology, 2023).)
